From ChEMBL document CHEMBL1201862, “PubChem BioAssay data set” (2004)
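Assay format: 96-well plates, 48-hour exposure. GI50 = concentration required for 50% inhibition of growth.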 Calls of active or inactive are those of the source. Cut-off read from the data, not from the text of the source: active = GI50 up to about 1.1 µM and inactive = higher.

Columns and labels:
Experiment in all cases: growth of human tumour cells (NCI), 48 h
[1] = system: SF-295
[2] = system: OVCAR-8
[3] = system: UO-31
[4] = system: HT-29
[5] = system: OVCAR-3
[6] = system: SN12C
[7] = system: ACHN
[8] = system: SK-MEL-28
[9] = system: LOX IMVI
[10] = system: SNB-19
[11] = system: LXFL 529
[12] = system: MOLT-4
[13] = system: RPMI-8226
[14] = system: M14
[15] = system: K562
[16] = system: SF-268
[17] = system: TK-10
[18] = system: 786-0
[19] = system: NCI-H460
[20] = system: SW-620
[21] = system: EKVX
[22] = system: CCRF-CEM
[23] = system: IGROV-1
[24] = system: Malme-3M
[25] = system: NCI-H23
[26] = system: SK-MEL-2
[27] = system: HCT-116
[28] = system: A498
[29] = system: SNB-75
[30] = system: M19-MEL
[31] = system: UACC-257
[32] = system: DLD-1
[33] = system: HOP-92
[34] = system: HOP-62
[35] = system: A549
[36] = system: NCI-H522
[37] = system: U-251
[38] = system: SK-OV-3
[39] = system: KM12
[40] = system: UACC-62
[41] = system: OVCAR-4
[42] = system: DMS-273
[43] = system: HCT-15
[44] = system: KM-20L2
[45] = system: COLO 205
[46] = system: HCC 2998
[47] = system: OVCAR-5
[48] = system: SK-MEL-5
[49] = system: SF-539
[50] = system: SNB-78
[51] = system: DMS-114
[52] = system: RXF 393
[53] = system: NCI-H226
[54] = system: CAKI-1
[55] = system: HL-60

Cc1cc2c(=O)cc(-c3cccs3)oc2c(C(=O)O)c1C
GI50 [1]: > 100 µM (inactive)
GI50 [2]: > 100 µM (inactive)
GI50 [3]: > 100 µM (inactive)
GI50 [4]: > 100 µM (inactive)
GI50 [5]: > 100 µM (inactive)
GI50 [6]: > 100 µM (inactive)
GI50 [7]: > 100 µM (inactive)
GI50 [8]: > 100 µM (inactive)
GI50 [9]: > 100 µM (inactive)
GI50 [10]: > 100 µM (inactive)
GI50 [11]: 49.4 µM (inactive)
GI50 [12]: > 100 µM (inactive)
GI50 [13]: 59.3 µM (inactive)
GI50 [14]: > 100 µM (inactive)
GI50 [15]: 35.8 µM (inactive)
GI50 [16]: 34.2 µM (inactive)
GI50 [17]: > 100 µM (inactive)
GI50 [18]: > 100 µM (inactive)
GI50 [19]: > 100 µM (inactive)
GI50 [20]: > 100 µM (inactive)
GI50 [21]: > 100 µM (inactive)
GI50 [22]: 64.7 µM (inactive)
GI50 [23]: > 100 µM (inactive)
GI50 [24]: > 100 µM (inactive)
GI50 [25]: > 100 µM (inactive)
GI50 [26]: > 100 µM (inactive)
GI50 [27]: > 100 µM (inactive)
GI50 [28]: > 100 µM (inactive)
GI50 [29]: 1.56 µM (inactive)
GI50 [30]: > 100 µM (inactive)
GI50 [31]: > 100 µM (inactive)
GI50 [32]: > 100 µM (inactive)
GI50 [33]: > 100 µM (inactive)
GI50 [34]: > 100 µM (inactive)
GI50 [35]: > 100 µM (inactive)
GI50 [36]: 21.2 µM (inactive)
GI50 [37]: > 100 µM (inactive)
GI50 [38]: > 100 µM (inactive)
GI50 [39]: 97.7 µM (inactive)
GI50 [40]: > 100 µM (inactive)
GI50 [41]: > 100 µM (inactive)
GI50 [42]: > 100 µM (inactive)
GI50 [43]: 42.8 µM
GI50 [44]: > 100 µM (inactive)
GI50 [45]: > 100 µM (inactive)
GI50 [46]: > 100 µM (inactive)
GI50 [47]: > 100 µM (inactive)
GI50 [48]: > 100 µM (inactive)
GI50 [49]: > 10 µM (inactive)

CCO/C=C\C12CCCC1NC(c1ccccc1)(c1ccccc1)O2 (stereo unspecified)
GI50 [1]: 32.7 µM (inactive)
GI50 [2]: 39.2 µM (inactive)
GI50 [3]: 28.8 µM (inactive)
GI50 [4]: 23.2 µM (inactive)
GI50 [5]: 27.9 µM (inactive)
GI50 [50]: 54.8 µM (inactive)
GI50 [6]: 25.7 µM (inactive)
GI50 [7]: 30.3 µM (inactive)
GI50 [8]: 40.5 µM (inactive)
GI50 [10]: 45.7 µM (inactive)
GI50 [11]: 28.1 µM (inactive)
GI50 [12]: 19.2 µM (inactive)
GI50 [14]: 22.5 µM (inactive)
GI50 [51]: 30.6 µM (inactive)
GI50 [15]: 20.1 µM (inactive)
GI50 [16]: 35.8 µM (inactive)
GI50 [52]: 31 µM (inactive)
GI50 [17]: 31.5 µM (inactive)
GI50 [18]: 32.7 µM (inactive)
GI50 [19]: 48.8 µM (inactive)
GI50 [20]: 38.4 µM (inactive)
GI50 [53]: 43.8 µM (inactive)
GI50 [21]: 43.9 µM (inactive)
GI50 [22]: 21.5 µM (inactive)
GI50 [23]: 28 µM (inactive)
GI50 [24]: 25.9 µM (inactive)
GI50 [25]: 28.4 µM (inactive)
GI50 [26]: 23.2 µM (inactive)
GI50 [27]: 30.7 µM (inactive)
GI50 [54]: 23.3 µM (inactive)
GI50 [28]: 53.5 µM (inactive)
GI50 [29]: 19.5 µM (inactive)
GI50 [30]: 24.7 µM (inactive)
GI50 [31]: 27.5 µM (inactive)
GI50 [32]: 32.3 µM (inactive)
GI50 [55]: 18.2 µM (inactive)
GI50 [33]: 24 µM (inactive)
GI50 [34]: 41.5 µM (inactive)
GI50 [35]: 32.8 µM (inactive)
GI50 [36]: 33.7 µM (inactive)
GI50 [37]: 33.3 µM (inactive)
GI50 [38]: 40.4 µM (inactive)
GI50 [39]: 35.7 µM (inactive)
GI50 [40]: 21.7 µM (inactive)
GI50 [41]: 35.8 µM (inactive)
GI50 [42]: 32.7 µM (inactive)
GI50 [44]: 23.1 µM (inactive)
GI50 [47]: 16.5 µM (inactive)
GI50 [48]: 17.1 µM (inactive)
GI50 [49]: 25.3 µM (inactive)

CC(C)=CCCC1(C)C=Cc2c(ccc3c2[nH]c2cc(O)c(C)cc23)O1 (stereo unspecified)
GI50 [2]: 3.81 µM (inactive)
GI50 [5]: 4.75 µM (inactive)
GI50 [50]: 13 µM (inactive)
GI50 [13]: 6.59 µM (inactive)
GI50 [51]: 7.14 µM (inactive)
GI50 [41]: 7.94 µM (inactive)
GI50 [47]: 19.4 µM (inactive)
